Measured values taken from paper PMC5654471 (Bioorganic & medicinal chemistry letters, 2016).

Experiments:
THP-1 cells = assay: ROS production; assay type: cell-based; settings: approximately 2 hours post-treatment
MOLM-14 cells [1] = assay: Double strand DNA breaks, γ-H2Ax immunofluorescence; assay type: cell-based; settings: 24 hours exposure, 200 nM, 1.0 and 2.0 µM
MOLM-14 cells [2] = assay: ROS production; assay type: cell-based; settings: approximately 2 hours post-treatment
female NSG mice = assay: Safety and tolerability in NSG mice; assay type: in vivo

SMILES: O=C1C(C2=C(N3CC3)C(=O)c3ccccc3C2=O)=C(N2CC2)C(=O)c2ccccc21 [Compound 3, 3,3'-Di(aziridin-1-yl)-[2,2'-binaphthalene]-1,1',4,4'-tetraone]
- ROS production (RFU) (THP-1 cells): dose-dependent increase in ROS production
- γ-H2Ax phosphorylation (double strand DNA breaks) (MOLM-14 cells [1]): substantial γ-H2Ax phosphorylation
- ROS production (RFU) (MOLM-14 cells [2]): dose-dependent increase in ROS production
- tolerability (female NSG mice; 5, 10 and 15 mg/kg IP for 5 consecutive days, one week observation): tolerated the compound well
- mean body weight loss (female NSG mice; mouse, in vivo, ip): ≤ 10%
